Assay results taken from patent US20110045101A1, “FUNGICIDAL SUBSTITUTED AZOLES” (E.I. Du Pont De Nemours and Company, priority 2009, published 2011).
Marks after values point to notes of the source that are not given here.

Tests used:
Format in all cases: in vivo
Settings in all cases: 100 = 100% disease control
[1] = system: Erysiphe graminis f. sp. tritici; assay: Test J: wheat powdery mildew on wheat seedlings, sprayed the day before inoculation, visual disease rating
Procedure, shortened: (§1)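 Test rate was 200 ppm, sprayed to run-off and equal to 500 g/ha, or 40 ppm where marked. The compound was first taken up in acetone at 3% of final volume and suspended in acetone/purified water (50/50) containing 250 ppm Trem® 014.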

Botrytis cinerea = assay: Test C: tomato Botrytis on tomato seedlings, sprayed the day before inoculation, visual disease rating
Procedure, shortened: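 Each compound is first taken up in acetone at 3% of the final volume and then brought to the desired ppm in a 50:50 acetone–water mix with 250 ppm surfactant (polyhydric alcohol esters). Tomato seedlings receive the suspension to run-off, normally at 200 ppm, occasionally 40 ppm.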

Alternaria solani = assay: Test D: tomato early blight, sprayed the day before inoculation, visual disease rating
Procedure, shortened: as §1

[2] = system: Puccinia recondita f. sp. tritici; assay: Test H: wheat leaf rust, test suspension sprayed after inoculation of wheat seedlings, visual disease rating
Procedure, shortened: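 Wheat seedlings inoculated with P. recondita spores, held 24 h saturated at 20 °C, then 2 days in growth chamber at 20 °C; compound suspension (acetone/water with Trem 014) sprayed to run-off afterwards. Rated visually; 200 ppm (≈500 g/ha) unless marked *, which denotes 40 ppm.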

Septoria nodorum = assay: Test F: wheat glume blotch on wheat seedlings, sprayed the day before inoculation, visual disease rating
Procedure, shortened: as §1

Septoria tritici = assay: Test G: wheat leaf blotch on wheat seedlings, sprayed the day before inoculation, visual disease rating
Procedure, shortened: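 Disease was rated visually after Septoria tritici inoculation, 48 h saturated incubation at 24°C and 19 days in a 20°C growth chamber. Inoculation followed one day after run-off spraying of seedlings with compound at 200 ppm (≈500 g/ha) or, where marked, 40 ppm, formulated in acetone/water with surfactant.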

[3] = system: Puccinia recondita f. sp. tritici; assay: Test I: wheat leaf rust on wheat seedlings, sprayed the day before inoculation, visual disease rating
Procedure, shortened: as §1

[4] = 200 ppm, 0 = no control relative to controls
[5] = 40 ppm (marked *), 0 = no control

| Structure (SMILES) | Test J disease control rating [1, 4] [%] | Test C disease control rating (Botrytis cinerea; [4]) [%] | Test D disease control rating (Alternaria solani; [4]) [%] | Test H disease control rating [2, 4] [%] | Test F disease control rating (Septoria nodorum; [4]) [%] | Test G disease control rating (Septoria tritici; [4]) [%] | Test I disease control rating [3, 4] [%] | further results |
| --- | --- | --- | --- | --- | --- | --- | --- | --- |
| Cc1nc(Cl)c(-c2c(F)ccc(F)c2F)n1-c1cccc(F)c1 [compound 369] | 99 | 99 | 100 | 74 | 98 | 92 | 99 |  |
| Cc1nc(Cl)c(-c2c(F)cc(F)cc2F)n1-c1cccc(OC(F)(F)F)c1 [compound 611] | 57 | 91 | 66 | 0 | 0 | 81 | 16 |  |
| COc1cc(OC)c(Cl)c(-n2cnc(Br)c2-c2ccc(Cl)cc2F)c1 [compound 641] | 83 | 95 | 96 | 100 | 94 | 99 | 100 |  |
| Fc1cc(F)c(-c2c(Cl)ncn2-c2cccc(OC(F)(F)F)c2)c(F)c1 [compound 586] | 21 | 0 | 0 | 0 | 0 | 3 | 0 |  |
| Cc1ncc(Cc2c(F)cc(F)cc2F)n1-c1cc(Cl)cc(Cl)c1 [compound 539] | 95 | 36 | 0 | 0 | 0 | 7 | 93 |  |
| Cc1nc(C)n(-c2ccc(F)cc2)c1-c1c(F)ccc(F)c1F [compound 417] |  |  |  |  |  |  |  | Test J disease control rating [1, 5]: 94* %; Test C disease control rating (Botrytis cinerea; [5]): 100* %; Test D disease control rating (Alternaria solani; [5]): 99* %; Test H disease control rating [2, 5]: 9* %; Test F disease control rating (Septoria nodorum; [5]): 0* %; Test G disease control rating (Septoria tritici; [5]): 89* %; Test I disease control rating [3, 5]: 9* % |
| COc1ccc(F)c(-c2c(C)nc(Cl)n2-c2ccc(Cl)cc2)c1F [compound 526] | 100 | 100 | 100 | 0 | 100 | 99 | 100 |  |
| Cc1ccc(-n2c(C)nc(C)c2-c2c(F)ccc(F)c2F)cc1 [compound 490] |  |  |  |  |  |  |  | Test J disease control rating ([1]; 40 ppm (marked *)): 100* %; Test C disease control rating (Botrytis cinerea; 40 ppm (marked *)): 97* %; Test D disease control rating (Alternaria solani; 40 ppm (marked *)): 99* %; Test H disease control rating ([2]; 40 ppm (marked *)): 0* %; Test F disease control rating (Septoria nodorum; 40 ppm (marked *)): 0* %; Test G disease control rating (Septoria tritici; 40 ppm (marked *)): 87* %; Test I disease control rating ([3]; 40 ppm (marked *)): 76* % |
| Cc1ncc(Cc2c(F)cc(F)cc2F)n1-c1ccc(Cl)cc1 [compound 530] | 71 | 0 | 0 | 0 | 0 | 58 | 88 |  |
| COc1ccc(F)c(-c2c(Cl)nc(C)n2-c2ccc(Cl)cc2)c1Cl [compound 519] | 100 | 100 | 100 | 0 | 100 | 97 | 100 |  |
| COc1ccc(F)c(-c2c(Cl)nc(Br)n2-c2cccc(OC(F)F)c2)c1F [compound 402] | 99 | 100 | 100 | 0 | 99 | 96 | 94 |  |
| COc1ccc(F)c(-c2c(Cl)nc(C)n2-c2ccc(Cl)c(F)c2)c1F [compound 393] | 100 | 99 | 100 | 79 | 99 | 95 | 99 |  |
| COc1ccc(F)c(-c2c(Br)nc(Cl)n2-c2ccc(C)cc2)c1F [compound 517] | 100 | 100 | 100 | 0 | 96 | 98 | 99 |  |
| Cc1ccc(-n2cnc(Br)c2-c2c(F)ccc(F)c2Cl)cc1 [compound 410] | 100 | 98 | 99 | 0 | 0 | 100 | 99 |  |
| COc1ccc(-c2c(Cl)nc(Cl)n2-c2ccc(Cl)cc2Cl)cc1 [compound 698] | 56 | 99 | 0 | 0 | 0 | 99 | 83 |  |
| COc1ccc(F)c(-c2c(Br)nc(Br)n2-c2ccc(Cl)cc2)c1F [compound 471] | 100 | 100 | 100 | 0 | 100 | 97 | 98 |  |
| COc1cc(F)c(-n2cnc(C)c2-c2cccc(F)c2)c(F)c1 [compound 683] |  |  |  |  |  |  |  | Test J disease control rating ([1]; 40 ppm (marked *)): 98* %; Test C disease control rating (Botrytis cinerea; 40 ppm (marked *)): 100* %; Test D disease control rating (Alternaria solani; 40 ppm (marked *)): 97* %; Test H disease control rating ([2]; 40 ppm (marked *)): 8* %; Test F disease control rating (Septoria nodorum; 40 ppm (marked *)): 0* %; Test G disease control rating (Septoria tritici; 40 ppm (marked *)): 67* %; Test I disease control rating ([3]; 40 ppm (marked *)): 0* % |
| COc1cc(F)c(-c2c(Br)ncn2-c2ccc(F)cc2)c(F)c1 [compound 506] | 99 | 100 | 100 | 78 | 92 | 99 | 100 |  |
| COc1ccc(F)c(-c2c(Cl)nc(C)n2Cc2ccc(Cl)cc2)c1F [compound 294] |  |  |  |  |  |  |  | Test J disease control rating ([1]; 200 ppm, 0 = no control): 97%; Test C disease control rating (Botrytis cinerea; 200 ppm, 0 = no control): 99%; Test D disease control rating (Alternaria solani; 200 ppm, 0 = no control): 100%; Test H disease control rating ([2]; 200 ppm, 0 = no control): 11%; Test F disease control rating (Septoria nodorum; 200 ppm, 0 = no control): 98%; Test G disease control rating (Septoria tritici; 200 ppm, 0 = no control): 96%; Test I disease control rating ([3]; 200 ppm, 0 = no control): 98% |
| COc1cc(F)c(-n2c(Cl)nc(C)c2-c2ccc(Cl)cc2)c(F)c1 [compound 396] |  |  |  |  |  |  |  | Test J disease control rating [1, 5]: 99* %; Test C disease control rating (Botrytis cinerea; [5]): 100* %; Test D disease control rating (Alternaria solani; [5]): 100* %; Test H disease control rating [2, 5]: 0* %; Test F disease control rating (Septoria nodorum; [5]): 99* %; Test G disease control rating (Septoria tritici; [5]): 93* %; Test I disease control rating [3, 5]: 100* % |
